Several values for one entry are separate records, joined by “and”; a condition that tells them apart may be missing. Equal entries are not always repeated.
Experiments:
[1] = test system: adults with uncontrolled, severe asthma; test: Phase 2b study CD-RI-CAT-354-1049 of SC tralokinumab, subgroup analysis by baseline serum periostin; assay type: in vivo, human; details: for Asthma exacerbation rate reduction: tralokinumab 300 mg Q2W vs placebo; for Change from baseline in ACQ-6 / Change from baseline in AQLQ / Percent change from baseline in FEV1: tralokinumab 300 mg Q2W
Method: A 5-week screening/run-in period (Week-5 to -1 [Day-1]) preceded randomisation. Starting at Week-4 (Day-28), patients received a fixed-dose combination product of fluticasone/salmeterol, either as an MDI (230 μg/21 μg) at a dose of 2 inhalations twice per day or as a DPI (500 μg/50 μg) at a dose of one inhalation twice per day. If the patient was also taking additional asthma controller medications (including leukotriene modifiers, theophylline, cromones, a secondary ICS, or oral prednisolone ≦20 mg/day or equivalent OCS), then these medications were to be continued at a stable dose during the screening/run-in and treatment period.
Patients were randomised in a 1:1 ratio to one of 2 cohorts (Cohort 1 or Cohort 2).
The median periostin level used in the study to define high periostin was a baseline serum periostin of ≧23 ng/mL (i.e., high periostin) as measured using an immunoassay.
FIGS. 11A-B; TABLE 4. The median periostin level used in the study to define high periostin was a baseline serum periostin of about ≧23 ng/mL (i.e., high periostin) as measured using an immunoassay. For a continuous representation of AER reduction by periostin level and percent change from baseline in pre-bronchodilator FEV, by serum periostin level, see FIG. 10.

[2] = test system: EPIAIRWAY tissue (normal and asthmatic lung epithelium); test: Periostin levels in IL-13 stimulated […] tissue models; assay type: cell-based, human; details: stimulation with 50 ng/mL IL-13 for 48 hours (FIG. 6)
Method: FIG. 6: Periostin levels in IL-13 Stimulated […]™ Models (Normal and Asthmatic Lung Epithelium). Detection of periostin levels in […]™ tissue obtained from either normal healthy individuals or from asthma patients each receiving different treatments: Advair only; oral and inhaled steroids; no medication; or albuterol only. Periostin levels were determined using the biotin/streptavidin-HRP sandwich ELISA assay using 4B4.B11 as the capture antibody and biotinylated 7B5.C4 as the detection antibody. Samples receiving steroid were pre-treated for 6 hrs with 100 nM budesonide. Samples were either unstimulated or stimulated with 50 ng/mL IL-13±budesonide for 48 hours. Periostin levels increase following stimulation with IL-13. This increase is reduced with steroid treatment.
The assay provided in this disclosure was further used to measure periostin levels in the […]™ tissue model. EpiAirway tissue models were obtained from MatTek corporation. These tissues are a 3-D model of respiratory tract tissue obtained from either normal healthy individuals or from asthma patients. The model was used to evaluate 1 normal donor and 4 asthma donors. The 4 asthma donors each had received different treatments: Advair only; oral and inhaled steroids; no medication; or albuterol only. All tissue samples were cultured in appropriate cell culture media (provided from MatTek) for 24 hrs prior to stimulation. […]

[3] = test system: patients with uncontrolled asthma; details: above-median vs below-median baseline serum periostin; cited from earlier work
[4] = post hoc, 300 mg Q2W, FEV1 reversibility≧12% and serum periostin≧median at baseline

Substance: tralokinumab
- percent change from baseline in pre-bronchodilator FEV1 over time ([1]; 300 mg Q2W group, through to Week 53, (FIG. 11B)): No significant increases in FEV1
- percent change from baseline in pre-bronchodilator FEV1 over time ([1]; 300 mg Q2W group, through to Week 53, periostin >=median (FIG. 11A)): Relative increases in FEV1 were observed
- percent change from baseline in pre-bronchodilator FEV1 over time ([1]; Q2/4W group, through to Week 53, (FIG. 11B)): No significant increases in FEV1
- reduction in serum periostin levels ([1]; patients with baseline serum periostin above the median compared to those below the median): Greater reduction
- percentage increase from baseline in pre-bronchodilator FEV1 compared to placebo [1, 4]: 13.85%
- reduction in AER [1, 4]: 54%
- Asthma exacerbation rate reduction ([1]; Week 53, ITT (N = 150)): 7%
- Asthma exacerbation rate reduction ([1]; Week 53, baseline serum Periostin ≧ Median): 25%
- Change from baseline in ACQ-6 ([1]; ITT): −0.18
- Change from baseline in AQLQ ([1]; ITT): 0.21
- Change from baseline in ACQ-6 ([1]; Periostin < Median): −0.02
- Change from baseline in AQLQ ([1]; Periostin < Median): 0.21
- Change from baseline in ACQ-6 ([1]; Periostin ≧ Median): −0.23
- Change from baseline in AQLQ ([1]; Periostin ≧ Median): 0.22
- Percent change from baseline in FEV1 ([1]; Week 53, ITT / regardless of serum periostin level): 7.1%
- Percent change from baseline in FEV1 ([1]; Week 53, Periostin < Median): 7.06%
- Percent change from baseline in FEV1 ([1]; Week 53, Periostin ≧ Median): 6.75% and 6.8%

Substance: IL-13: 114 amino acid cytokine used to stimulate periostin expression
- Periostin levels [2]: increase

Substance: lebrikizumab
- increases in FEV1 [3]: larger increases in FEV1
